Measured values: the supplement of paper PMC10307832

Columns and labels:
Experiment in all cases: relative viability (nuclei count vs DMSO), 5 days (fraction); higher = more cells survive
XMD8-85 + Olaparib = compound: CN1CCN(CC1)C2=CC(=C(C=C2)NC3=NC=C4C(=N3)N(C5=CC=CC=C5C(=O)N4C)C)OC [XMD8-85] + O=C(c1cc(Cc2n[nH]c(=O)c3ccccc23)ccc1F)N1CCN(C(=O)C2CC2)CC1 [Olaparib] (partner 8 µM)
In short: (§1)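 Lung cancer cell lines in 1536-well plates were dosed by pin tool the day after seeding, either with one drug alone or with a fixed anchor-drug dose plus five library-drug doses (not always all listed) in √10 steps. After 5 days, cells were fixed and their nuclei stained in one step (final 0.05% Triton X-100, 1% formaldehyde, 1 ug/ml Hoechst), then counted on 4× images. Relative viability is the nuclei count in treated wells divided by that in vehicle wells. Values are medians of duplicate plates.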

4EGI-1 + Pictilisib = compound: O=C(O)C(Cc1ccccc1[N+](=O)[O-])=NNc1nc(-c2ccc(Cl)c(Cl)c2)cs1 (mixture of isomers) [4EGI-1] + CS(=O)(=O)N1CCN(Cc2cc3nc(-c4cccc5[nH]ncc45)nc(N4CCOCC4)c3s2)CC1 [Pictilisib] (partner 1 µM)
In short: as §1

4EGI-1 + Vorinostat = compound: O=C(O)C(Cc1ccccc1[N+](=O)[O-])=NNc1nc(-c2ccc(Cl)c(Cl)c2)cs1 (mixture of isomers) [4EGI-1] + O=C(CCCCCCC(=O)Nc1ccccc1)NO [Vorinostat] (partner 1 µM)
In short: as §1

XMD8-85 + Pemetrexed = compound: CN1CCN(CC1)C2=CC(=C(C=C2)NC3=NC=C4C(=N3)N(C5=CC=CC=C5C(=O)N4C)C)OC [XMD8-85] + Nc1nc2[nH]cc(CCc3ccc(C(=O)N[C@@H](CCC(=O)O)C(=O)O)cc3)c2c(=O)[nH]1 [Pemetrexed] (partner 0.2 µM)
In short: as §1

Row | Cell Line | relative viability (XMD8-85 + Olaparib; first compound 0.08 µM) | relative viability (XMD8-85 + Olaparib; first compound 0.253 µM) | relative viability (XMD8-85 + Olaparib; first compound 0.8 µM) | relative viability (XMD8-85 + Olaparib; first compound 2.53 µM) | relative viability (XMD8-85 + Olaparib; first compound 8 µM) | relative viability (4EGI-1 + Pictilisib; first compound 0.5 µM) | relative viability (4EGI-1 + Pictilisib; first compound 1.581 µM) | relative viability (4EGI-1 + Pictilisib; first compound 5 µM) | relative viability (4EGI-1 + Pictilisib; first compound 15.81 µM) | relative viability (4EGI-1 + Pictilisib; first compound 50 µM) | relative viability (4EGI-1 + Vorinostat; first compound 0.5 µM) | relative viability (4EGI-1 + Vorinostat; first compound 1.581 µM) | relative viability (4EGI-1 + Vorinostat; first compound 5 µM) | relative viability (4EGI-1 + Vorinostat; first compound 15.81 µM) | relative viability (4EGI-1 + Vorinostat; first compound 50 µM) | relative viability (XMD8-85 + Pemetrexed; first compound 0.08 µM) | relative viability (XMD8-85 + Pemetrexed; first compound 0.253 µM) | relative viability (XMD8-85 + Pemetrexed; first compound 0.8 µM) | relative viability (XMD8-85 + Pemetrexed; first compound 2.53 µM) | relative viability (XMD8-85 + Pemetrexed; first compound 8 µM)
1 | NCI-H727 | 0.684 | 0.674 | 0.867 | 0.725 | 0.684 | 0.382 | 0.451 | 0.26 | 0.344 | 0.328 | 1.13 | 0.94 | 1.22 | 1.04 | 0.714 |  |  |  |  | 
2 | LCLC-103H | 0.84 | 0.759 | 0.768 | 0.793 | 0.665 | 0.57 | 0.541 | 0.591 | 0.574 | 0.451 | 0.619 | 0.75 | 0.851 | 0.746 | 0.282 | 0.426 | 0.452 | 0.401 | 0.432 | 0.398
3 | ABC-1 | 0.919 | 0.864 | 0.781 | 0.764 | 0.795 | 0.898 | 0.647 | 0.724 | 0.359 | 0.268 | 1.16 |  | 1.35 | 0.439 | 0.284 |  |  |  |  | 
4 | NCI-H3122 | 0.574 | 0.673 | 0.691 | 0.762 | 0.676 | 0.599 | 0.531 | 0.632 | 0.635 | 0.412 | 1.04 | 1.11 | 1.03 | 1.11 | 0.773 | 0.178 | 0.201 | 0.203 | 0.213 | 0.172
5 | NCI-H1648 | 0.857 | 1.14 | 0.919 | 0.482 | 0.861 |  |  |  |  |  | 1.18 | 0.388 | 0.351 | 0.414 | 0.474 |  | 0.693 | 0.826 | 0.765 | 0.692
6 | NCI-H1703 | 0.308 |  | 0.427 | 0.42 | 0.312 | 0.266 | 0.253 | 0.238 | 0.222 | 0.255 |  |  |  |  |  |  |  |  |  | 
7 | HOP-62 | 0.136 | 0.55 | 0.384 | 0.287 | 0.231 | 0.576 |  | 0.709 | 0.546 | 0.256 | 0.65 | 0.346 | 0.715 | 0.616 | 0.104 | 0.307 | 0.358 | 0.349 | 0.251 | 0.247
8 | NCI-H2405 | 0.908 | 0.919 | 0.949 | 0.859 | 0.817 | 0.471 | 0.355 | 0.547 | 0.571 | 0.518 | 1.07 |  | 1.02 | 1.01 | 0.35 | 1.12 | 1.05 | 1.04 | 1.01 | 0.602
9 | LXF-289 | 0.972 | 1.08 | 1.09 | 0.94 | 0.915 | 0.846 | 0.731 | 0.793 | 0.745 | 0.516 | 0.79 | 0.718 | 0.787 | 0.802 | 0.672 | 0.856 | 0.88 | 0.878 | 0.949 | 0.899
